Results taken from publication PMC12289521, “Ligand binding to a Ni–Fe cluster orchestrates conformational changes of the CO-dehydrogenase–acetyl-CoA synthase complex” (Nature Catalysis, 2025).
pKd: −log10 of the molar value.

Key:
[1] = target: T1, acetyl-CoA synthase (ACS) (Carboxydothermus hydrogenoformans, UniProt Q3ACS4); assay: ITC of CODH–ACS complex with […] Ti(III)–EDTA, […] °C; assay type: binding
T1 construct: gene acsB; CODH–ACS complex, heterologously expressed in E. coli; with CO-dehydrogenase (CODH)
T1 sequence (Q3ACS4 1-732): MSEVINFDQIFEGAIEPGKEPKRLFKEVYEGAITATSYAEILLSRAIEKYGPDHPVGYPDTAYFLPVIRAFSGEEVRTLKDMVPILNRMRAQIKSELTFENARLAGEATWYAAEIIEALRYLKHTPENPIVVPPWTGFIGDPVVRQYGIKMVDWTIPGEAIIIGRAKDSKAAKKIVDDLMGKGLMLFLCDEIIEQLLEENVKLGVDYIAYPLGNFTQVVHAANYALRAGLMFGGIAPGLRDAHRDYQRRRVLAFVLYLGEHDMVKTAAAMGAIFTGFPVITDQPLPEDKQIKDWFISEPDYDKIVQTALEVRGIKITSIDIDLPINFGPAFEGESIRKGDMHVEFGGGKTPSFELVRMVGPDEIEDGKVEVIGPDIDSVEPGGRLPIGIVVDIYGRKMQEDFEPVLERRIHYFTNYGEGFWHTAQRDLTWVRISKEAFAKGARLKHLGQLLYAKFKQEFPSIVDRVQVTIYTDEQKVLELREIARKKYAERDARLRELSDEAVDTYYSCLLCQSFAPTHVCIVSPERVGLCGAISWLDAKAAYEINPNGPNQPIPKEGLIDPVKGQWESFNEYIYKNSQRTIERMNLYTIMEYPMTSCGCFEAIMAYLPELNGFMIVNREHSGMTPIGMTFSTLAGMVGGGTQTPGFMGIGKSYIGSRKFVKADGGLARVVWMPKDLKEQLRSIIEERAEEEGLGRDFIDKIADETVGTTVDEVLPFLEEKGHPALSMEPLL

[2] = target: T1, acetyl-CoA synthase (ACS); assay: ITC of methyl transfer to cluster A (two-substrate-two-product fit); assay type: binding

With `CC(C)(COP(=O)(O)OP(=O)(O)OC[C@H]1O[C@@H](n2cnc3c(N)ncnc32)[C@H](O)[C@@H]1OP(=O)(O)O)[C@@H](O)C(=O)NCCC(=O)NCCS` [CoA] the pKd [1] was > 4.06.

For methyl cobinamide, the “ITC of methyl transfer to cluster A (two-substrate-two-product fit)” value [2] was 341.
